Test results taken from ChEMBL document CHEMBL6134892, “Discovery and Evaluation of DA-302168S as an Efficacious Oral Small-Molecule Glucagon-Like Peptide-1 Receptor Agonist” (J Med Chem, 2025).
Blank lines part the entries; values can stand above or below the molecule they belong to.

Key:
[1] = target: Glucagon-like peptide 1 receptor (Homo sapiens, UniProt P43220); assay: Agonist activity at human GLP-1R expressed in HEK293 cells coexpressing CRE LUC incubated for 5 hrs by luciferase based microplate reader analysis; assay type: functional, cell-based
Cytochrome P450 2D6 = Cytochrome P450 2D6 (Homo sapiens, UniProt P10635); assay: Inhibition of CYP2D6 in human liver microsomes incubated for 20 mins in presence of NADPH by LC-MS/MS analysis; assay type: ADME, Microsome
Cytochrome P450 2C8 = target: T1, Cytochrome P450 2C8 (Homo sapiens, UniProt P10632); assay: Inhibition of CYP2C8 in human liver microsomes incubated for 20 mins in presence of NADPH by LC-MS/MS analysis; assay type: ADME, Microsome
T1 sequence (P10632 whole entry): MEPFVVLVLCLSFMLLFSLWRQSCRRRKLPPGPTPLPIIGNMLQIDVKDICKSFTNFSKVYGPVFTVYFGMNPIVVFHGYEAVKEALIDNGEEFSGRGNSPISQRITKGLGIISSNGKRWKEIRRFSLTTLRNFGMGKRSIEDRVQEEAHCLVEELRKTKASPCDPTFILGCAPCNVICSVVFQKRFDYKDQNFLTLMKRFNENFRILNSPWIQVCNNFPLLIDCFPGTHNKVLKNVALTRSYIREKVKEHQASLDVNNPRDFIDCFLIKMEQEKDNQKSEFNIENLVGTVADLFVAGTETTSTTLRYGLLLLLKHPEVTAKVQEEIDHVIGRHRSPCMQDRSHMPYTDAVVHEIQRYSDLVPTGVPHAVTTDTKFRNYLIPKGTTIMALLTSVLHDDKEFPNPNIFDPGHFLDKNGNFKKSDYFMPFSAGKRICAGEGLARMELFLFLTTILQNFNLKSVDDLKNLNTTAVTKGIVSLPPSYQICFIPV

Cytochrome P450 2C9 = Cytochrome P450 2C9 (Homo sapiens, UniProt P11712); assay: Inhibition of CYP2C9 in human liver microsomes incubated for 10 mins in presence of NADPH by LC-MS/MS analysis; assay type: ADME, Microsome
[2] = AUC last in Sprague-Dawley rat at 10 mg/kg, po measured up to 24 hrs by LC-MS/MS analysis; assay type: ADME, organism-based; conditions: in vivo
Cytochrome P450 2C19 = Cytochrome P450 2C19 (Homo sapiens, UniProt P33261); assay: Inhibition of CYP2C19 in human liver microsomes incubated for 45 mins in presence of NADPH by LC-MS/MS analysis; assay type: ADME, Microsome
[3] = Tmax in Sprague-Dawley rat at 10 mg/kg, po measured up to 24 hrs by LC-MS/MS analysis; assay type: ADME, organism-based; conditions: in vivo
[4] = Metabolic stability in human liver microsomes assessed as half life at 1 uM measured after 5 to 45 mins in presence of NADPH by LC-MS/MS analysis; assay type: ADME, Microsome; conditions: time 5-45 min
[5] = Metabolic stability in human liver microsomes assessed as hepatic clearance at 1 uM measured after 5 to 45 mins in presence of NADPH by LC-MS/MS analysis; assay type: ADME, Microsome; conditions: time 5-45 min
Cytochrome P450 1A2 = target: T2, Cytochrome P450 1A2 (Homo sapiens, UniProt P05177); assay: Inhibition of CYP1A2 in human liver microsomes incubated for 10 mins in presence of NADPH by LC-MS/MS analysis; assay type: ADME, Microsome
T2 sequence (P05177 whole entry): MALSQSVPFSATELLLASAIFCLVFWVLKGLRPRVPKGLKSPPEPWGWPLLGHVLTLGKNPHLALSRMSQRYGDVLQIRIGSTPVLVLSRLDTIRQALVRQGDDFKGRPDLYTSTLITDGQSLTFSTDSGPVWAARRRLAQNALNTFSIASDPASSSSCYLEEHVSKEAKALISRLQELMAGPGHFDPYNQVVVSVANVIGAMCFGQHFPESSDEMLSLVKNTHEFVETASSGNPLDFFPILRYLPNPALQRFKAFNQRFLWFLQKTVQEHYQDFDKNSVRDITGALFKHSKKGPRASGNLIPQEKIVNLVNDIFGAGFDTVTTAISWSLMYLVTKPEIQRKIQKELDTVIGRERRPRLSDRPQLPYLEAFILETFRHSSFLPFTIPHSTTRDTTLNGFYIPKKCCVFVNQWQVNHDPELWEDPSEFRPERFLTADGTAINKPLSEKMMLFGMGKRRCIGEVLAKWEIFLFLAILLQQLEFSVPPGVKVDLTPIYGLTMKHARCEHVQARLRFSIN

[6] = Cmax in Sprague-Dawley rat at 10 mg/kg, po measured up to 24 hrs by LC-MS/MS analysis; assay type: ADME, organism-based; conditions: in vivo
Cytochrome P450 2B6 = target: T3, Cytochrome P450 2B6 (Homo sapiens, UniProt P20813); assay: Inhibition of CYP2B6 in human liver microsomes incubated for 10 mins in presence of NADPH by LC-MS/MS analysis; assay type: ADME, Microsome
T3 sequence (P20813 whole entry): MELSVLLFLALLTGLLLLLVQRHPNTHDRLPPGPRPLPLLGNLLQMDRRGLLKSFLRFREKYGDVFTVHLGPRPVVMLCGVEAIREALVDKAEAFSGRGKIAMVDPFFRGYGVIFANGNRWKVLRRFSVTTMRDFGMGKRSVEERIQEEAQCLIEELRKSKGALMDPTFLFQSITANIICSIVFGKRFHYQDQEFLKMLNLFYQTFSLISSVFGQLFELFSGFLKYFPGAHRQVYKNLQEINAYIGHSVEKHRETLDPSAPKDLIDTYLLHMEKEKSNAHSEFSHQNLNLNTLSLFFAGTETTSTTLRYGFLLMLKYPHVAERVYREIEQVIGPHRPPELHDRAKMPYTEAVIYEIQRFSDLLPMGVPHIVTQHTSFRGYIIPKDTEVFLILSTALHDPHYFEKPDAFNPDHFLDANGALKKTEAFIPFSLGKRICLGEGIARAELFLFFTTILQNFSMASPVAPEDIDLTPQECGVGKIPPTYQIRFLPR

[7] = Metabolic stability in human liver microsomes assessed as intrinsic clearance at 1 uM measured after 5 to 45 mins in presence of NADPH by LC-MS/MS analysis; assay type: ADME, Microsome; conditions: time 5-45 min, read-out: CLH
Cytochrome P450 3A4 = Cytochrome P450 3A4 (Homo sapiens, UniProt P08684); assay: Inhibition of CYP3A4 in human liver microsomes using testosterone as substrate incubated for 5 mins in presence of NADPH by LC-MS/MS analysis; assay type: ADME, Microsome
Sequence of Cytochrome P450 3A4 (P08684 whole entry): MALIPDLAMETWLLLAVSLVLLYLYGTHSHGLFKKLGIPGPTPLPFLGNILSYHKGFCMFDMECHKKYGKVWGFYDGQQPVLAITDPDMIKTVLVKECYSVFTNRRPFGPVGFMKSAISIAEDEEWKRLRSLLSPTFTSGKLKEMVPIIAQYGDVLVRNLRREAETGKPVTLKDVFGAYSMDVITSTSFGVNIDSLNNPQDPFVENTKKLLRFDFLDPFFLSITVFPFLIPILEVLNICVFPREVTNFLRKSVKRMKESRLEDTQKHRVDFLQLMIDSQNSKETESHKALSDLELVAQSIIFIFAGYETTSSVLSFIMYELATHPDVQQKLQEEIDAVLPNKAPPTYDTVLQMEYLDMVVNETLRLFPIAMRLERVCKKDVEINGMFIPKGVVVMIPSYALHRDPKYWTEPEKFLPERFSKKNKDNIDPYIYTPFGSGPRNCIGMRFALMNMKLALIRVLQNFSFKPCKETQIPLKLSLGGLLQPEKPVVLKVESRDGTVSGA

Sequence of Glucagon-like peptide 1 receptor (P43220 whole entry): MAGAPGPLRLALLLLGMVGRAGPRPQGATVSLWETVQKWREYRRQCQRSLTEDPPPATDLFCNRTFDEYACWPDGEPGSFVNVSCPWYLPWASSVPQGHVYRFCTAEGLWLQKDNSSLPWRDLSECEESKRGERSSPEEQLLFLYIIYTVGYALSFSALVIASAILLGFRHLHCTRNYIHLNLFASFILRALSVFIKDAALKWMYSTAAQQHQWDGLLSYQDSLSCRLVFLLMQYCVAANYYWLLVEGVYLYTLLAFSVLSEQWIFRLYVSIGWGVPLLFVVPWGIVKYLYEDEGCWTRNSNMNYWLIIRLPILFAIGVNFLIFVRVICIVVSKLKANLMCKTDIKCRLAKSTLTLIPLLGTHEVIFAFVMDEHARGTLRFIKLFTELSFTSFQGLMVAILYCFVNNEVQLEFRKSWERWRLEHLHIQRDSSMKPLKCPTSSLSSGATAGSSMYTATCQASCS
Sequence of Cytochrome P450 2C19 (P33261 whole entry): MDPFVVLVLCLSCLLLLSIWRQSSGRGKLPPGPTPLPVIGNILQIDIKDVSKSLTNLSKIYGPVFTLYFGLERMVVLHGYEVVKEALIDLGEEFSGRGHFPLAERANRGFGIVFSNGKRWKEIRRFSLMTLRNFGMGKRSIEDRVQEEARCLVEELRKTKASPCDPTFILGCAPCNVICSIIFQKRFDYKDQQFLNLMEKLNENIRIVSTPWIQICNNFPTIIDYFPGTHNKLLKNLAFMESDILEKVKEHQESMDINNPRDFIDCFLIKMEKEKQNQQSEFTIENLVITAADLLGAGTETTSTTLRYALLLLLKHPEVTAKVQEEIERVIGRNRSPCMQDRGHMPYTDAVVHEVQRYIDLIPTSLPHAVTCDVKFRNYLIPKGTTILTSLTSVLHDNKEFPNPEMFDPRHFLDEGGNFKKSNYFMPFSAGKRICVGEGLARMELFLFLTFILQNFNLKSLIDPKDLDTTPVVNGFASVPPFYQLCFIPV
Sequence of Cytochrome P450 2C9 (P11712 whole entry): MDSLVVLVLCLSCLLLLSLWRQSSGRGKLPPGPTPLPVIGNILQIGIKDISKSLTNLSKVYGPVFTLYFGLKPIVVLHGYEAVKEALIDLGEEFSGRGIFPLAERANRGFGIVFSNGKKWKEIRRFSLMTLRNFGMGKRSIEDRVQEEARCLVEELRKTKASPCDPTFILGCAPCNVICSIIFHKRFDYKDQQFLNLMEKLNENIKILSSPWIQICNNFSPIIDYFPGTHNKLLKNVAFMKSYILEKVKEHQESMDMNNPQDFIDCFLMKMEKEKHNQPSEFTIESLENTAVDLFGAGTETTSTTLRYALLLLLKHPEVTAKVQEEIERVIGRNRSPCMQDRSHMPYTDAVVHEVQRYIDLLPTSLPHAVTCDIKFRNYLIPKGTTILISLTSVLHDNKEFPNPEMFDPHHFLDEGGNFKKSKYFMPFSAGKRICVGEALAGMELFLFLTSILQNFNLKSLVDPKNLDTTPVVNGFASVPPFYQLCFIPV
Sequence of Cytochrome P450 2D6 (P10635 whole entry): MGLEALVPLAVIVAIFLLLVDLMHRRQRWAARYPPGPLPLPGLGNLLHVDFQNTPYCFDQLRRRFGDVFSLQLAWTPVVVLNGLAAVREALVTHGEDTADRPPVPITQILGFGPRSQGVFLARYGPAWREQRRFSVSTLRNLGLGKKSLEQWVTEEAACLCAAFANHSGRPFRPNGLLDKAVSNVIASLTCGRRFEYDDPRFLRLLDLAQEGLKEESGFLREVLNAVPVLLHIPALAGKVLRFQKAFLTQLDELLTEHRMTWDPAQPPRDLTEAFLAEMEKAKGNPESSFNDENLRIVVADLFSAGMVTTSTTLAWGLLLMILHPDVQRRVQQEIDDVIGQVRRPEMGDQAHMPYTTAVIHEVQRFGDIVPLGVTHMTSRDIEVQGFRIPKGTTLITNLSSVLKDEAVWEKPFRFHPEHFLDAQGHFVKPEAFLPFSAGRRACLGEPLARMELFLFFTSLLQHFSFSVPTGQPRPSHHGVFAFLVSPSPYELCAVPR

SMILES: N#Cc1ccc(COc2cccc(N3CCC(Cc4nc5ccc(C(=O)O)cc5n4C[C@@H]4CCO4)CC3)n2)c(F)c1
EC50 [1]: 85.5 nM

SMILES: N#Cc1ccc(COc2cccc(C3CCN(Cc4nc5ccc(C(=O)O)cc5n4C[C@@H]4CCO4)CC3)n2)c(F)c1 [DANUGLIPRON]
IC50 (Cytochrome P450 2D6): > 30000 nM
IC50 (Cytochrome P450 2C8): 3340 nM
IC50 (Cytochrome P450 2C9): > 30000 nM
AUC(0-t) at 24 h [2]: 714 ng·h/mL
IC50 (Cytochrome P450 2C19): > 30000 nM
Tmax [3]: 0.63 h
half-life at 1 µM [4]: 1.8 h
CLhep predicted at 1 µM [5]: 9.04 mL/min/kg
IC50 (Cytochrome P450 1A2): > 30000 nM
Cmax [6]: 197 ng/mL
IC50 (Cytochrome P450 2B6): > 30000 nM
CLint scaled at 1 µM [7]: 16 mL/min/kg
IC50 (Cytochrome P450 3A4): > 30000 nM

SMILES: Cc1cc(-c2cccc(OCc3ccc(C#N)cc3F)n2)ccc1Cc1nc2ccc(C(=O)O)cc2n1C[C@@H]1CCO1
EC50 [1]: 13.5 nM

More lines, in order of falling EC50 [1], values ahead:

EC50 [1]: 198 nM
SMILES: Cn1ccc2ccc(COc3cccc(-c4ccc(Cc5nc6ccc(C(=O)O)cc6n5C[C@@H]5CCO5)c(F)c4)n3)cc21

EC50 [1]: 70.9 nM
SMILES: O=C(O)c1ccc2nc(Cc3ccc(-c4cncc(OCc5ccc(Cl)c6ccoc56)n4)cc3F)n(C[C@@H]3CCO3)c2c1
